Assay results published in ChEMBL document CHEMBL1201862, “PubChem BioAssay data set” (2004).
Active and inactive are the calls of the source.

Key:
[1] = reduced cellular PGC1a acetyl-lysine signal – cell-based, cherry-picked samples, dose response (AID 720514); type: functional;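 also: potency may reflect raised or lowered acetylation signal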
[2] = Luminescence-based cell-based high throughput dose response assay to identify activators of the DAF-12 from the parasite S. stercoralis (ssDAF-12).; type: functional
[3] = target: T1, Oxysterols receptor LXR-beta (Homo sapiens, UniProt P55055); test: LXR agonists, Gal4 luciferase reporter, dose response, counter-screen for ssDAF-12 agonist project, cell-based, luminescence, HEK293, S. stercoralis campaign (AID 720737); type: functional; details: read-out: IC50 (the source's name)
T1 sequence (P55055 whole entry): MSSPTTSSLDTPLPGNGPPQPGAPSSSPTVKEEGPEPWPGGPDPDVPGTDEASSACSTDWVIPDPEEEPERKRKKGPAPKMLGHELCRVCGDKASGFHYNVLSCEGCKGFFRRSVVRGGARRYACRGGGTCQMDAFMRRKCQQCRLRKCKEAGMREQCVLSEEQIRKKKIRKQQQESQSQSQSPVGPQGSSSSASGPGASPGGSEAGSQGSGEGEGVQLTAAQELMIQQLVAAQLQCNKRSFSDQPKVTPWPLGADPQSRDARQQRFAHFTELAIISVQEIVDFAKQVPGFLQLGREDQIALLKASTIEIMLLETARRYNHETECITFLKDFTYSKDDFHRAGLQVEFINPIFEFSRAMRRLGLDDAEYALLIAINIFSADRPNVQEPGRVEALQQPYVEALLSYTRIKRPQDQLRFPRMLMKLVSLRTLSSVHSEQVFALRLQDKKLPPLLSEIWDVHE

[4] = rise of 2N DNA cells, HeLa – IC50, dose response (AID 1117349); type: functional, cell-based
[5] = CellTiter-Glo luminescence survival assay, SW480 colon tumor line, concentration-response curve, half-maximal inhibitory concentration (AID 1117338); type: functional
[6] = RKO cell viability reduction, dose response, CellTiter-Glo luminescence (AID 1117322); type: functional
[7] = cytotoxicity toward HCT116 cells – cell-based, CellTiter-Glo luminescence, IC50, dose response (AID 1117332); type: functional; details: HCT-116
[8] = SNU-C1 cell viability reduction, dose response, CellTiter-Glo luminescence (AID 1117323); type: functional, cell-based
[9] = glucagon-like peptide-1 release potency in STC-1, concentration-response, half-maximal inhibitory concentration in the STC-1 line (AID 1117345); type: functional, cell-based
[10] = cytotoxicity toward Colo320 cells – cell-based, CellTiter-Glo luminescence, IC50, dose response (AID 1117334); type: functional; details: COLO 320
[11] = rise of 4N DNA cells, HeLa – IC50, dose response (AID 1117351); type: functional, cell-based
[12] = cytotoxicity toward HT-29 cells – cell-based, CellTiter-Glo luminescence, IC50, dose response (AID 1117330); type: functional
[13] = Reduced DLD-1 viability, concentration-response, CellTiter-Glo luminescence (AID 1117352); type: functional
[14] = HCT116 cell viability decrease, GSK3B pretreatment – CellTiter-Glo, IC50, dose response (AID 1117339); type: functional; details: HCT-116
[15] = Potency on glucagon-like peptide 1 release, dose-response in NCI-H716 cell line, half maximal inhibitory concentration (AID 1117344); type: functional, cell-based
[16] = Late-stage results from the probe development effort to identify antagonists of arginine vasopressin receptor 1a (AVPR1a): fluorescence-based cell-based dose response AVPR1a inhibition assay.; type: functional
Vasopressin V1b receptor = Vasopressin V1b receptor (Homo sapiens, UniProt P47901); test: Late-stage results from the probe development effort to identify antagonists of arginine vasopressin receptor 1a (AVPR1a): fluorescence-based cell-based dose response AVPR1b inhibition counterscreen assay.; type: functional
Vasopressin V2 receptor = Vasopressin V2 receptor (Homo sapiens, UniProt P30518); test: Late-stage results from the probe development effort to identify antagonists of arginine vasopressin receptor 1a (AVPR1a): fluorescence-based cell-based dose response AVPR2 inhibition counterscreen assay.; type: functional
[17] = Late-stage results from the probe development effort to identify antagonists of arginine vasopressin receptor 1a (AVPR1a): fluorescence-based cell-based dose response OXTR inhibition counterscreen assay.; type: functional
[18] = viability of uninfected HEp-2 cells – cell-based, HTS, cytotoxicity control for RSV inhibitor project, dose response (AID 2410); type: functional; details: human respiratory syncytial virus
Vero [19] = test: mammalian cell viability reduction – secondary assay, cytotoxicity control for West Nile virus antiviral project, dose response (AID 1650); type: functional; details: Chlorocebus sabaeus
Vero [20] = test: cells; type: functional; details: Chlorocebus sabaeus
[21] = viability loss in THP-1 monocytes – THP-1 cells, cytotoxicity control for Vif-APOBEC3G degradation inhibitor project, dose response (AID 1117359); type: functional; details: THP-1
[22] = target: G-protein coupled receptor 183 (Homo sapiens, UniProt P32249); test: SAR confirmation of small molecule antagonists of the EBI2 receptor via a luminescent beta-arrestin assa.; type: functional
[23] = Orthopox viral replication plaque formation Measured in Cell-Based and Microorganism Combination System Using Imaging - 2142-05_Inhibitor_Dose_DryPowder_Activity.; type: functional

G-protein coupled receptor 183, sequence (P32249 whole entry): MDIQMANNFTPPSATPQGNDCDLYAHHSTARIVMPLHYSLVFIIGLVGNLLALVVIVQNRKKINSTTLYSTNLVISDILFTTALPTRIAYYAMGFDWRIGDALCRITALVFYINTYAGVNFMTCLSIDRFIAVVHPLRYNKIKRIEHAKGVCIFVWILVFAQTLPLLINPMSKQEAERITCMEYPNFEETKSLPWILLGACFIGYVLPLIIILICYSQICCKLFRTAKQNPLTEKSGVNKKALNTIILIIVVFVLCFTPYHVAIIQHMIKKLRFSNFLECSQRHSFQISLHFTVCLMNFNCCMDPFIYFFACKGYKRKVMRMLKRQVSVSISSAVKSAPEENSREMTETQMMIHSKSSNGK
Vasopressin V2 receptor, sequence (P30518 whole entry): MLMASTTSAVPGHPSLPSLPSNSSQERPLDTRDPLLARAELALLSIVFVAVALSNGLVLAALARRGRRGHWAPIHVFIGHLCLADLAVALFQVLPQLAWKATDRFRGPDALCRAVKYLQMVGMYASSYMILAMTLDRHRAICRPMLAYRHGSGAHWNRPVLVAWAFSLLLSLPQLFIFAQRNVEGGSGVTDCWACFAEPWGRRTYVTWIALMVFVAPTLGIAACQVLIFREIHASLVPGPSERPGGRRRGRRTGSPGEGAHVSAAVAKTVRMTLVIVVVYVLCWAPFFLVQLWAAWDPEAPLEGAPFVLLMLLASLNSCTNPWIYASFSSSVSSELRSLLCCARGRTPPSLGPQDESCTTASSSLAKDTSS
Vasopressin V1b receptor, sequence (P47901 whole entry): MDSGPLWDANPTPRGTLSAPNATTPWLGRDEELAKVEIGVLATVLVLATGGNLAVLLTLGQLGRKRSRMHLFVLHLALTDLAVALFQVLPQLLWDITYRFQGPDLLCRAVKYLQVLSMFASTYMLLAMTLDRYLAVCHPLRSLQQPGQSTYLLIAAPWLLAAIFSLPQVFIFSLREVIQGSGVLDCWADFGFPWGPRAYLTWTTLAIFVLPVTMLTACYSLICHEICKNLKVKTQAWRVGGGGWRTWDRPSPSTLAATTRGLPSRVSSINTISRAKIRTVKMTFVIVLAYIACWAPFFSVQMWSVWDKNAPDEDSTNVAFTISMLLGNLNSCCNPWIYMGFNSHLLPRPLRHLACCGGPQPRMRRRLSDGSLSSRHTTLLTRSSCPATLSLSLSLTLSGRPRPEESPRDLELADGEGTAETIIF

## N#Cc1c(N)c(C(=O)c2ccccc2)n2ccccc12
[1]
  AC50: 25.7 µM (active)

## COc1ccc(C(=O)c2ccccc2)cc1
[2]
  IC50: > 67.6 µM (inactive)
[3]
  EC50: > 67.6 µM (inactive)

## Oc1ccc([C@H]2CNCc3c2ccc(O)c3O)cc1O
[4]
  IC50: > 10 µM (inactive)
[5]
  IC50: > 20 µM (inactive)
[6]
  IC50: 0.0332 µM (active)
[7]
  IC50: > 20 µM (inactive)
[8]
  IC50: > 20 µM (inactive)
[9]
  IC50: > 20 µM (inactive)
[10]
  IC50: 0.466 µM (active)
[11]
  IC50: > 10 µM (inactive)
[12]
  IC50: > 20 µM (inactive)
[13]
  IC50: > 20 µM (inactive)
[14]
  IC50: 0.188 µM (active)
[15]
  IC50: 5.95 µM (inactive)

## COc1ccc(N(CC2CC2)C(=O)N2CCN(c3ccccc3C)CC2)cc1
[16]
  IC50: 0.0038 µM (active)
Vasopressin V1b receptor
  IC50: 5.8 µM (active)
Vasopressin V2 receptor
  IC50: 3.51 µM (active)
[17]
  IC50: 0.051 µM (active)

## COc1ccc(C(=O)N/N=C/C23CC[C@@H](O)CC2(O)CC[C@@H]2[C@@H]3CCC3(C)C(C4=CC(=O)OC4)CCC23O)cc1 (stereo not given in full)
[18]
  CC50: 12.5 µM (active)
Vero [19]
  CC50: 43.5 µM (active)
Vero [20]
  CC50: 22.1 µM (active)
[21]
  CC50: 10.4 µM (active)

## O=C(/C=C/c1ccc(Br)cc1)N1CCN(C(=O)C2CCCC2)CC1
[22]
  IC50: 0.00441 µM (active)

## C[C@@H](O)C#Cc1ccc2c(c1)O[C@@H](CN(C)S(=O)(=O)c1ccc(-c3ccccc3)cc1)[C@@H](C)CN([C@@H](C)CO)S2(=O)=O
[23]
  AC50: 12.3 µM (active)
